Results published in article PMC5809120 (Journal of the American Chemical Society, 2018).

Substrate: Nc1ncnc2c1ncn2[C@@H]1O[C@H](COP(=O)(O)OP(=O)(O)OP(=O)(O)O)[C@@H](O)[C@H]1O
Assay: radiolabelled uptake into E. coli YZ2 cells, filter assay
Format: cell-based, Phaeodactylum tricornutum
Settings: whole-cell uptake; labelled compound ([α-32P]ATP)

| Molecule | Km [µM] |
| --- | --- |
| PtNTT2(66-575) (Phaeodactylum tricornutum CCAP 1055/1) (protein) GGSTVAPTTPLATGGALRKVRQAVFPIYGNQEVTKFLLIGSIKFFIILALTLTRDTKDTLIVTQCGAEAIAFLKIYGVLPAATAFIALYSKMSNAMGKKMLFYSTCIPFFTFFGLFDVFIYPNAERLHPSLEAVQAILPGGAASGGMAVLAKIATHWTSALFYVMAEIYSSVSVGLLFWQFANDVVNVDQAKRFYPLFAQMSGLAPVLAGQYVVRFASKAVNFEASMHRLTAAVTFAGIMICIFYQLSSSYVERTESAKPAADNEQSIKPKKKKPKMSMVESGKFLASSQYLRLIAMLVLGYGLSINFTEIMWKSLVKKQYPDPLDYQRFMGNFSSAVGLSTCIVIFFGVHVIRLLGWKVGALATPGIMAILALPFFACILLGLDSPARLEIAVIFGTIQSLLSKTSKYALFDPTTQMAYIPLDDESKVKGKAAIDVLGSRIGKSGGSLIQQGLVFVFGNIINAAPVVGVVYYSVLVAWMSAAGRLSGLFQAQTEMDKADKMEAKTNKEK | 186.0 ± 21.1 |

Biological target: T1, PtNTT2(66-575) (Phaeodactylum tricornutum, UniProt B7FWL8)
T1 sequence (B7FWL8 66-575): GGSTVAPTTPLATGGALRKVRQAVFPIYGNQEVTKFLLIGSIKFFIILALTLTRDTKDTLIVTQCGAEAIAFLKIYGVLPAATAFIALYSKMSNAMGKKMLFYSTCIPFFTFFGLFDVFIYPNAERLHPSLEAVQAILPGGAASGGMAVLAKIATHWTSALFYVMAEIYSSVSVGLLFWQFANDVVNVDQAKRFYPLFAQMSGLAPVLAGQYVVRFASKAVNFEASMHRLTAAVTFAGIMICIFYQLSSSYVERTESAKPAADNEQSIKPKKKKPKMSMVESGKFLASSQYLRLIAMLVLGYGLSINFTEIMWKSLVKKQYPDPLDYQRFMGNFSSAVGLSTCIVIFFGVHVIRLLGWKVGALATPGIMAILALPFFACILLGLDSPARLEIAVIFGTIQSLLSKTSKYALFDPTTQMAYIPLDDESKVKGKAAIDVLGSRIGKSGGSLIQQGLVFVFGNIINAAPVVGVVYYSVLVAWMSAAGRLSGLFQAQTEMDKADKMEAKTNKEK
Assay: inhibition of [α-32P]ATP uptake into E. coli YZ2 cells
Format: cell-based
Settings: read-out: % inhibition at 500 μM

| Molecule | inhibition at 500 µM [%] |
| --- | --- |
| Nc1ccn([C@@H]2O[C@H](COP(=O)(O)OP(=O)(O)OP(=O)(O)O)[C@@H](O)[C@H]2O)c(=O)n1 [CTP] | 70.5 ± 4.9 |
| Nc1nc(=O)n([C@H]2C[C@H](O)[C@@H](COP(=O)(O)OP(=O)(O)OP(=O)(O)O)O2)cc1I [5-IdCTP] | 73.6 ± 1.8 |
| Nc1ccn([C@H]2C[C@H](O)[C@@H](COP(=O)(O)OP(=O)(O)OP(=O)(O)O)O2)c(=O)n1 [dCTP] | 76.3 ± 2.8 |
| Nc1nc2c(ncn2COCCOP(=O)(O)OP(=O)(O)OP(=O)(O)O)c(=O)[nH]1 [ACVTP] | 68.6 ± 5.5 |
| Nc1nc(=O)n([C@@H]2O[C@H](COP(=O)(O)OP(=O)(O)OP(=O)(O)O)[C@@H](O)[C@H]2O)cc1CO [5-hmCTP] | 76.3 ± 2.9 |
| Nc1nc2c(ncn2[C@H]2C[C@H](O)[C@@H](COP(=O)(O)OP(=O)(O)OP(=O)(O)O)O2)c(=O)[nH]1 [dGTP] | 55.3 ± 3.6 |

The remaining lines, values ahead:

| inhibition at 500 µM [%] | Molecule |
| --- | --- |
| 56.9 ± 12 | Cc1cn([C@H]2C[C@H](N=[N+]=[N-])[C@@H](COP(=O)(O)OP(=O)(O)OP(=O)(O)O)O2)c(=O)[nH]c1=O [AZTTP] |
| 47.8 ± 7.9 | Nc1nc2c(ncn2[C@@H]2O[C@H](COP(=O)(O)OP(=O)(O)OP(=O)(O)O)[C@@H](O)[C@@H]2O)c(=O)[nH]1 [Ara-GTP] |
| 60.4 ± 1.4 | Nc1nc2c(ncn2[C@@H]2O[C@H](COP(=O)(O)OP(=O)(O)OP(=O)(O)O)[C@@H](O)[C@H]2O)c(=O)[nH]1 [GTP] |
| 81.3 ± 5.2 | Nc1ccn([C@@H]2O[C@H](COP(=O)(O)OP(=O)(O)OP(=O)(O)O)[C@@H](O)[C@@H]2O)c(=O)n1 [Ara-CTP] |
| 96.6 ± 1.3 | Nc1nc(=O)n([C@@H]2O[C@H](COP(=O)(O)OP(=O)(O)OP(=O)(O)O)[C@@H](O)[C@H]2O)cc1I [5-ICTP] |
